Values joined by “and” are separate entries in the source; they are usually repeats but may differ in a detail not shown here. Equal values may be shown once.
System: healthy adult volunteers
Assay: Multiple ascending dose study NP10679-102, safety and tolerability
Format: in vivo, human
Details: MAD; for Subjects with at least one TEAE / TEAE, system organ class: Blood and lymphatic system disorders / TEAE, system organ class: Eye disorders / TEAE, system organ class: Gastrointestinal disorders / TEAE, system organ class: General disorders and administration site conditions / TEAE, system organ class: Injury, poisoning and procedural complications / TEAE, system organ class: Investigations / TEAE, system organ class: Musculoskeletal and connective tissue disorders / TEAE, system organ class: Nervous system disorders / TEAE, system organ class: Skin and subcutaneous tissue disorders / TEAE, system organ class: Vascular disorders / TEAE: Anaemia / TEAE: Asthenia / TEAE: Back pain / TEAE: Blood pressure diastolic decreased / TEAE: Contusion / TEAE: Dizziness / TEAE: Dysgeusia / TEAE: Erythema / TEAE: Fatigue / TEAE: Head injury / TEAE: Headache / TEAE: Nausea / TEAE: Pain / TEAE: Peripheral swelling / TEAE: Phlebitis / TEAE: Somnolence / TEAE: Syncope / TEAE: Vision blurred: N = 6

O=C1CCc2cc(OC[C@H](O)CN3CCN(c4ccc(C(F)(F)F)cc4)CC3)ccc2N1 [NP10679, (R)-6-(2-Hydroxy-3-(4-(4-(trifluoromethyl)phenyl)piperazin-1-yl)propoxy)-3,4-dihydroquinolin-2(1H)-one]
5 (83.3%) n (%): Subjects with at least one TEAE (25 mg IV once daily x 5 days)
3 n (%) and 3 (50.0%) n (%): TEAE: Somnolence (50 mg IV once daily x 5 days)
no evidence: dissociative symptoms or cognitive impairment (CADSS, DSST)
1 (16.7%) n (%): TEAE, system organ class: General disorders and administration site conditions (25 mg IV once daily x 5 days) | TEAE, system organ class: Investigations (25 mg IV once daily x 5 days) | TEAE: Blood pressure diastolic decreased (25 mg IV once daily x 5 days) | TEAE: Dysgeusia (25 mg IV once daily x 5 days) | TEAE: Fatigue (25 mg IV once daily x 5 days) | TEAE, system organ class: Injury, poisoning and procedural complications (50 mg IV once daily x 5 days) | TEAE, system organ class: Skin and subcutaneous tissue disorders (50 mg IV once daily x 5 days) | TEAE: Contusion (50 mg IV once daily x 5 days) | TEAE: Erythema (50 mg IV once daily x 5 days) | TEAE: Fatigue (50 mg IV once daily x 5 days) | TEAE: Pain (50 mg IV once daily x 5 days) | TEAE: Peripheral swelling (50 mg IV once daily x 5 days) | TEAE, system organ class: Blood and lymphatic system disorders (100 mg IV once daily x 5 days) | TEAE, system organ class: Gastrointestinal disorders (100 mg IV once daily x 5 days) | TEAE, system organ class: General disorders and administration site conditions (100 mg IV once daily x 5 days) | TEAE, system organ class: Injury, poisoning and procedural complications (100 mg IV once daily x 5 days) | TEAE, system organ class: Vascular disorders (100 mg IV once daily x 5 days) | TEAE: Anaemia (100 mg IV once daily x 5 days) | TEAE: Asthenia (100 mg IV once daily x 5 days)
2 (33.3%) n (%): TEAE, system organ class: Blood and lymphatic system disorders (25 mg IV once daily x 5 days) | TEAE, system organ class: Injury, poisoning and procedural complications (25 mg IV once daily x 5 days) | TEAE: Anaemia (25 mg IV once daily x 5 days) | TEAE: Contusion (25 mg IV once daily x 5 days) | TEAE: Headache (25 mg IV once daily x 5 days) | TEAE, system organ class: General disorders and administration site conditions (50 mg IV once daily x 5 days)
0 n (%): TEAE, system organ class: Eye disorders (25 mg IV once daily x 5 days) | TEAE, system organ class: Gastrointestinal disorders (25 mg IV once daily x 5 days) | TEAE, system organ class: Musculoskeletal and connective tissue disorders (25 mg IV once daily x 5 days) | TEAE, system organ class: Skin and subcutaneous tissue disorders (25 mg IV once daily x 5 days) | TEAE, system organ class: Vascular disorders (25 mg IV once daily x 5 days) | TEAE: Asthenia (25 mg IV once daily x 5 days) | TEAE: Back pain (25 mg IV once daily x 5 days) | TEAE: Dizziness (25 mg IV once daily x 5 days) | TEAE: Erythema (25 mg IV once daily x 5 days) | TEAE: Head injury (25 mg IV once daily x 5 days) | TEAE: Nausea (25 mg IV once daily x 5 days) | TEAE: Pain (25 mg IV once daily x 5 days) | TEAE: Peripheral swelling (25 mg IV once daily x 5 days) | TEAE: Phlebitis (25 mg IV once daily x 5 days) | TEAE: Somnolence (25 mg IV once daily x 5 days) | TEAE: Syncope (25 mg IV once daily x 5 days) | TEAE: Vision blurred (25 mg IV once daily x 5 days) | TEAE, system organ class: Blood and lymphatic system disorders (50 mg IV once daily x 5 days) | TEAE, system organ class: Eye disorders (50 mg IV once daily x 5 days) | TEAE, system organ class: Gastrointestinal disorders (50 mg IV once daily x 5 days) | TEAE, system organ class: Investigations (50 mg IV once daily x 5 days) | TEAE, system organ class: Musculoskeletal and connective tissue disorders (50 mg IV once daily x 5 days) | TEAE, system organ class: Vascular disorders (50 mg IV once daily x 5 days) | TEAE: Anaemia (50 mg IV once daily x 5 days) | TEAE: Asthenia (50 mg IV once daily x 5 days) | TEAE: Back pain (50 mg IV once daily x 5 days) | TEAE: Blood pressure diastolic decreased (50 mg IV once daily x 5 days) | TEAE: Dizziness (50 mg IV once daily x 5 days) | TEAE: Dysgeusia (50 mg IV once daily x 5 days) | TEAE: Head injury (50 mg IV once daily x 5 days) | TEAE: Headache (50 mg IV once daily x 5 days) | TEAE: Nausea (50 mg IV once daily x 5 days) | TEAE: Phlebitis (50 mg IV once daily x 5 days) | TEAE: Syncope (50 mg IV once daily x 5 days) | TEAE: Vision blurred (50 mg IV once daily x 5 days) | TEAE, system organ class: Eye disorders (100 mg IV once daily x 5 days) | TEAE, system organ class: Investigations (100 mg IV once daily x 5 days) | TEAE, system organ class: Musculoskeletal and connective tissue disorders (100 mg IV once daily x 5 days) | TEAE, system organ class: Skin and subcutaneous tissue disorders (100 mg IV once daily x 5 days) | TEAE: Back pain (100 mg IV once daily x 5 days) | TEAE: Blood pressure diastolic decreased (100 mg IV once daily x 5 days) | TEAE: Contusion (100 mg IV once daily x 5 days)
3 (50.0%) n (%): TEAE, system organ class: Nervous system disorders (25 mg IV once daily x 5 days) | Subjects with at least one TEAE (50 mg IV once daily x 5 days) | TEAE, system organ class: Nervous system disorders (50 mg IV once daily x 5 days)
4 (66.7%) n (%): TEAE, system organ class: Nervous system disorders (100 mg IV once daily x 5 days)
No serious adverse events: serious adverse events (SAEs)
6 (100%) n (%): Subjects with at least one TEAE (100 mg IV once daily x 5 days)
